Values quoted from earlier work in US20170042147A1, “A miticide composition of prolonged action and its manufacturing process, a miticide strip and a procedure to control Varroa destructor mite” (COOP. DE TRABAJO APÍCOLA PAMPERO LTDA, priority 2014, published 2017).

System: Varroa
Details: bee hives without brood; use in Europe

## O=C(O)C(=O)O [Oxalic acid]
  efficacy against Varroa: excellent efficacy
